Tests used:
Raf-1 [1] = assay: Raf-1 activity after co-expression with KSR in COS-7 cells; format: cell-based, human (Raf-1 expressed in COS-7 cells)
Description: Some studies used untagged KSR (n=4) and yielded identical results. At 60 hours post-transfection, cells were lysed with RIPA buffer (NP-40 buffer containing 0.1% SDS and 0.1% deoxy cholate). […] […]. The samples were boiled for 5 min, resolved with SDS-PAGE (7.5%) and autoradiographed.
[…]. After 30 min, the reaction was stopped by addition of Laemmli sample buffer and phosphorylated MBP were resolved by 15% SDS-PAGE, prior to autoradiography.
; a kind gift of Dr. Natalie Ahn) or 1.25 μg recombinant human MEK1 (Santa Cruz), 0.625 μg recombinant human ERK1 (UBI) and myelin basic protein (MBP). After 20-30 min, the reaction was stopped by addition of SDS sample buffer. […]

[2] = test system: ceramide-activated protein kinase; assay: EGFR peptide phosphorylation by kinase in A-431 microsomal membranes / postnuclear supernatant; format: biochemical, human (A-431 epidermoid carcinoma cells)
Description: Kinetics of ^32 Pi incorporation into the EGFR peptide. […] The reaction was initiated by addition of 50 μl of [γ-^32 P]ATP (150 μM final concentration) and terminated by addition of 50 μl of 0.5 M ATP in 90% (vol/vol) formic acid. Samples were spotted on phosphocellulose paper, washed with 1 M acetic acid/4 mM pyrophosphate, and ^32 P incorporation was measured by liquid-scintillation counting, as described. A boiled protein blank was subtracted from each data value. The data (means) represent duplicate samples from one of two similar experiments. […]
Kinetics of ceramide-induced ^32 Pi incorporation into EGFR peptide. Peptide phosphorylation was done as described in FIG. 2 in the absence (.smallcircle.) or presence (.circle-solid.) of 0.5 μM C8 -ceramide. Phosphorylated peptide was resolved by HPLC. Values (means) represent data from three experiments.
Concentration-dependence of ceramide-induced ^32 Pi incorporation into EGFR peptide. Peptide phosphorylation reactions were done as described for FIG. 2, for 2 minutes, using various concentrations of ceramide (0.001-3 μM). Phosphorylated peptide was resolved by HPLC. Values (means) represent data from three experiments. […]
Phosphorylation was initiated at 22° C. by addition of 50 μl of [γ-^32 P] ATP (150 μM final concentration; 4000 dpm/pmol). For studies with lipid activators, ceramide and other lipids were dried under N2 and resuspended in the kinase assay buffer by bath sonication for 2 minutes at 37° C.
Phosphorylated peptide was quantified by two separate methods. For initial studies, samples were spotted on phosphocellulose paper, washed in 1 M acetic acid/4 mM pyrophosphate and subjected to liquid scintillation counting, according to methods well known to those skilled in the art. Values obtained from a boiled blank or a sample lacking peptide were subtracted from each determination. Alternatively, HPLC was done according to methods well known to those skilled in the art. For these studies, samples were first applied to a C18 Sep-Pak cartridge and eluted with 99.9% acetonitrile/0.1% trifluoroacetic acid. The eluates were lyophilized, resuspended in 6 M guanidine hydrochloride/200 mM Tris, pH 8.5 and applied to a C18 reverse-phase column (Dynamax, 4.6 mm i.d., Rainin, Woburn, Mass.). The peptide was eluted with a linear gradient (1% per minute) of acetonitrile at a flow rate of 1 ml/minute and was detected by measuring the Cerenkov radiation associated with 1-ml fractions.

Raf-1 [3] = assay: Activation of Raf-1 by KSR in vitro (MEK1 phosphorylation)
[4] = test system: ceramide-activated protein kinase; assay: Ceramide-activated protein kinase activity (EGFR peptide) in EL-4 cell fractions; conditions: 10 nM to 1 μM
Description: Effect of IL-1β on ceramide-activated protein kinase activity. […] Homogenates were centrifuged at 500×g for 5 minutes to remove nuclei and at 200,000×g for 30 minutes to prepare microsomal membranes. Membranes were resuspended into homogenizing buffer (2.2 μg membrane protein μl^-1). For assay of kinase activity, the reaction mixture contained 20 μl of microsomal membrane, 40 μl EGFR peptide (4 mg ml^-1 in 25 mM Hepes, pH 7.4) and 100 μl buffer (50 mM HEPES, pH 7.4, 20 mM MgCl2). Phosphorylation was initiated at 22° C. by addition of 40 μl [γ-^32 P] ATP (100 μM final concentration) and terminated at the indicated times by addition of 40 μl of 0.5 M ATP in 90% formic acid. Phosphorylated peptide was eluted from a C18 Sep pak cartridge (Millipore), lyophilized, and resolved by C18 reverse phase HPLC using a linear gradient of acetonitrile. […] All assays were performed under conditions determined as linear for time and enzyme concentration. Enzyme activity was determined from the percent conversion of substrate to product and the specific radioactivity of [γ-^32 P] ATP. […] Values (mean±range) represent duplicate determinations from two experiments.
Activity was measured by the transfer of ^32 P from the γ-position of ATP to EGFR peptide (AA 663-681 of the EGFR). The effect of IL-1β on kinase activity was determined using microsomal membranes derived from cells stimulated with IL-1β.

[5] = test system: ceramide-activated protein kinase; conditions: treatment of intact cells; literature; cited from earlier work
Raf-1 [6] = assay: Kinase activity of immunoprecipitated Raf-1 toward MEK1 after HL-60 cell stimulation; format: cell-based, human (HL-60 cells)
Description: Recovery of MEK1 was monitored by western blot (Bottom Panel). Identical results were obtained with cells stimulated for 5 min with TNF.
Recovery of MEK1 was monitored by western blot (Bottom Panel).
These studies indicate that Raf-1 is a component of the sphingomyelin pathway mediating TNF action.
MEK1 autophosphorylation was for 45 min. An autoradiogram of MEK1 phosphorylation (top panel) and recovery of MEK1 protein by western blot (bottom panel) are shown. For western blot, proteins separated by SDS-PAGE were electrotransferred to an Immobilon PVDF membrane at 12 volts overnight at 4° C. Membranes were then blocked with 2% BSA in TBS [20 mM Tris, pH 7.6, 137 mM NaCl] for 1 hr and washed with TBST (TBS containing 0.2% Tween-20).

[7] = test system: ceramide-activated protein kinase; conditions: ceramide 0.001 to 3 μM, of the control, ref. [40]; cited from earlier work
Raf-1 [8] = assay: Raf-1 phosphorylation in intact HL-60 cells; format: cell-based, human (HL-60 cells); conditions: TNF 1 nM; ceramide; sphingomyelinase 10 mU/ml
Description: To examine this possibility, intact HL-60 cells were metabolically labeled with ^32 P-orthophosphate for 4 hr followed by stimulation with TNF for the indicated times (FIG. 20A). […] Raf-1 proteins were resolved by SDS-PAGE and autoradiographed.
FIG. 20A--300×10^6 cells were resuspended at 37° C. in 15 ml of serum-free phosphate-free RPMI medium ([…]) containing 6 mCi ^32 P-orthophosphate. After […], cells were resuspended into the same buffer without radiolabel (5×10^7 /point) and stimulated with TNF (1 nM). At the indicated times, ice-cold serum-free phosphate-free RPMI was added and cells were homogenized as described in FIG. 17 in RIPA lysis buffer. Cell debris was removed by centrifugation at 700×g for 5 min. […] After SDS-PAGE, Raf-1 was transferred to an Immobilon PVDF (Millipore) membrane according to the vendor's instructions. […] The data (CPM/Raf protein) are presented as fold of control and represent one of three studies performed in triplicate.

With Raf-1(T268V) the “Raf-1 activation in COS-7 cells co-expressing KSR” value (Raf-1 [1]) was “as effectively as wild type Raf-1”.
In the case of Raf-1(T269V), the “Raf-1 activation in COS-7 cells co-expressing KSR” value (Raf-1 [1]) is reported as “not activated”.
For ceramide, the duration of stimulation ([2]; 0.5 μM ceramide) was “at least 15 minutes”, the “onset of stimulation of EGFR peptide phosphorylation” value ([2]; 0.5 μM ceramide) was ≤ 30 s and the “increase in kinase activity” value ([2]; 0.5 μM ceramide, by 30 s) was 2 fold. The lowest effective concentration ([2]; 2 minutes of stimulation) was 1 nM, the “EGFR peptide phosphorylation, fold of control” value ([2]; 2 minutes of stimulation, maximal effect for ceramide at 1 μM) was 2.1 fold of control and the EC50 ([2]; 2 minutes of stimulation, read-out: ED50 for EGFR peptide phosphorylation) was ~30 nM. The “concentration inducing maximal phosphorylation” value ([2]; EGFR peptide phosphorylation) was 1 µM, the lowest effective concentration ([2]; EGFR peptide phosphorylation, A-431) was 1 nM and the “effect on EGFR peptide phosphorylation” value ([2]; words) was “similarly effective”. The “KSR-dependent Raf-1 activity toward MEK1 in vitro” value (Raf-1 [3]) was “markedly enhanced”, the “activation of Raf-1 by ceramide in the absence of KSR” value (Raf-1 [3]) was “not stimulated” and the “enhancement of kinase activity, of control” value [4] was 1.5-2.5 of control. The “enhancement of CAP kinase autophosphorylation / activity” value [5] was 5-10 fold, the “effect on kinase activity of Raf-1 toward MEK1” value (Raf-1 [6]) was “similarly enhanced activity toward MEK1” and the “maximum enhancement of kinase activity” value [7] was “two-fold”. The “Raf-1 phosphorylation in intact HL-60 cells” value (Raf-1 [8]) was “similarly induced Raf-1 phosphorylation”.
